Source: US20240398768A1, “METHODS OF TREATING SOLID TUMOR USING HETEROAROMATIC MACROCYCLIC ETHER COMPOUNDS” (Nuvalent, Inc., priority 2021, published 2024)

System: NIH3T3 cells expressing ROS1 fusions with G2032R
Experiment: Anchorage-independent colony formation assay
Assay type: cell-based
Conditions: at 100 nM
Experimental: Each inhibitor was paired with its own DMSO condition to serve as an accurate control. NIH3T3 cells expressing CD74-ROS1 or EZR-ROS1 wild-type or mutant fusions were plated in 0.4% agarose in complete medium at a density of 2,000 cells per 0.5 mL of agarose with DMSO or inhibitor at identical concentration to the bottom layer. Plates were incubated for 4 weeks, and each well was fed 3× per week with 75 μL of complete medium with or without inhibitor to match each plated condition to prevent drying of the agarose. Plates were read after 3 and 4 weeks using a GelCount™ (Oxford Optronix). Colony counts were averaged by condition and normalized to the colony counts from paired DMSO conditions. Data analysis and visualization was performed using Microsoft Excel and GraphPad Prism.

CN1CCN(c2ccc(C(=O)Nc3n[nH]c4ccc(Cc5cc(F)cc(F)c5)cc34)c(NC3CCOCC3)c2)CC1 [Entrectinib, reference compound] was tested. Which “inhibition of colony formation” value did it give?
Its value is “weaker effects”.
